Reference: patent publication US9873702B2, “Heterocyclic compounds as biogenic amine transport modulators” (Southern Research Institute, priority 2014, dated 2018)
Like-named read-outs stand apart in the source and are kept apart here.

How the values were obtained:
DAT = target: T1, DAT (Rattus norvegicus, UniProt P23977); assay: Dopamine transporter binding, inhibition of [^3H]WIN35428 binding in rat caudate membranes; conditions: 2 h; read-out: DAT Binding εmax
T1 construct: from tissue; host or cells: rat caudate membranes
T1 sequence (P23977 whole entry): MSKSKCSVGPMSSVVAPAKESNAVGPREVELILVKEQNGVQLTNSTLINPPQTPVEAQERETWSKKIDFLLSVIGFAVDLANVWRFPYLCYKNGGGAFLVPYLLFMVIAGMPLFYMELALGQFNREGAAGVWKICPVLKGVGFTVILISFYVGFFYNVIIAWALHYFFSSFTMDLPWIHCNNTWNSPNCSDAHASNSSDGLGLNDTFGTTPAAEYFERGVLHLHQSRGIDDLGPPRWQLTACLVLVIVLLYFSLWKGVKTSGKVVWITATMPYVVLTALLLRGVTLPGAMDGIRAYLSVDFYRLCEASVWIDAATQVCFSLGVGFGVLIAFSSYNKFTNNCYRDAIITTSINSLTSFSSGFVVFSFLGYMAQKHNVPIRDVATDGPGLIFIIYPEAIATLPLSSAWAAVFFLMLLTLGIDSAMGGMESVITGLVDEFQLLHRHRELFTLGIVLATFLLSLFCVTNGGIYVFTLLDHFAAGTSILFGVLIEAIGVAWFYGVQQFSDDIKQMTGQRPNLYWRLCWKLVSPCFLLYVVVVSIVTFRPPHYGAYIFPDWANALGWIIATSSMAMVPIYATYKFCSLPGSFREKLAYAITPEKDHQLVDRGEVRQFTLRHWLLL
Method: The ability of test drugs to inhibit [^3H]WIN35428 binding to DAT in rat caudate membranes was assessed as follows. For each experiment, caudates from four rat brains were suspended in 15 mL ice cold assay buffer (50 mM sodium phosphate pH 7.4) and homogenized using a polytron (setting 6, 20 sec). The homogenate was centrifuged at 30,000×g for 10 minutes at 4° C. The pellet was resuspended with vigorous vortexing in 15 mL fresh ice cold assay buffer, and the centrifugation was repeated. The pellet was resuspended in 15 mL fresh ice cold assay buffer with vigorous vortexing followed by six strokes with a glass-on-glass hand-held homogenizer and was diluted to a final volume of 235 mL in ice cold assay buffer. [^3H]WIN35428 was diluted to 10 nM in assay buffer that contained 25 μg/mL chymostatin, 25 μg/mL leupeptin, 0.1 mM EDTA, and 0.1 mM EGTA. Each assay tube contained 0.75 mL membrane preparation, 0.15 mL test drug diluted in assay buffer containing 1 mg/mL bovine serum albumin, and 0.1 mL [^3H]WIN35428 preparation (final concentration of 1 nM). Assays were initiated by the addition of membranes and were terminated after 2 hours at 25° C. by rapid vacuum filtration. Retained tritium was measured as described. The data from three experiments were pooled and fit to a dose-response curve equation (using Kaleidagraph), to yield an Emax and EC50 value.

[1] = target: dopamine transporter (DAT) (Rattus norvegicus, UniProt P23977); assay: Dopamine reuptake ([^3H]dopamine uptake) inhibition in rat brain synaptosomes
dopamine transporter (DAT), sequence (P23977 whole entry): as above
Method: Freshly removed caudate was homogenized in 10% ice-cold sucrose with 12 strokes of a hand-held Potter-Elvehj em homogenizer followed by centrifugation at 1000×g for 10 min. The supernatants were saved on ice and used immediately. Transporter activity was assessed using 5 nM [^3H]dopamine. […] The selectivity of the uptake assay for dopamine active transporter (DAT) was optimized by including 100 nM citalopram and 100 nM desipramine as blockers of serotonin transporter (SERT) and norepinephrine transporter (NET) in the sucrose solution and assay buffer. Uptake inhibition assays were conducted at 25° C. and were initiated by adding 100 μl of tissue to 900 μL assay buffer containing test drug and [^3H]dopamine. Test drugs were diluted in assay buffer containing 1 mg/mL bovine serum albumin. Nonspecific uptake was measured by incubating in the presence of 10 μM indatraline. The reactions were stopped after 15 minutes by rapid vacuum filtration with a cell harvester (BRANDEL) over GF/B filters (Whatman) presoaked in wash buffer maintained at 25° C. (10 mM Tris-HCl, pH 7.4/150 mM NaCl). Filters were rinsed with 6 mL wash buffer and retained tritium was quantified by a MicroBeta liquid scintillation counter (PerkinElmer) after overnight extraction in 0.6 mL of liquid scintillation cocktail (Cytoscint, ICN). The data from three experiments were pooled and fit to a dose-response curve equation (using Kaleidagraph), to yield an Emax and EC50 value.
(§1) The data from three experiments were pooled and fit to a dose-response curve equation (using KaleidaGraph; Synergy Software, Reading, Pa.) to yield an Emax and IC50 value.

[2] = target: T2, serotonin transporter (SERT) (Rattus norvegicus, UniProt P31652); assay: Serotonin reuptake ([^3H]serotonin uptake) inhibition in rat brain synaptosomes; format: biochemical
T2 construct: Freshly removed whole brain minus cerebellum and caudate was homogenized; from tissue; host or cells: rat whole brain minus cerebellum and caudate, synaptosomes
T2 sequence (P31652 whole entry): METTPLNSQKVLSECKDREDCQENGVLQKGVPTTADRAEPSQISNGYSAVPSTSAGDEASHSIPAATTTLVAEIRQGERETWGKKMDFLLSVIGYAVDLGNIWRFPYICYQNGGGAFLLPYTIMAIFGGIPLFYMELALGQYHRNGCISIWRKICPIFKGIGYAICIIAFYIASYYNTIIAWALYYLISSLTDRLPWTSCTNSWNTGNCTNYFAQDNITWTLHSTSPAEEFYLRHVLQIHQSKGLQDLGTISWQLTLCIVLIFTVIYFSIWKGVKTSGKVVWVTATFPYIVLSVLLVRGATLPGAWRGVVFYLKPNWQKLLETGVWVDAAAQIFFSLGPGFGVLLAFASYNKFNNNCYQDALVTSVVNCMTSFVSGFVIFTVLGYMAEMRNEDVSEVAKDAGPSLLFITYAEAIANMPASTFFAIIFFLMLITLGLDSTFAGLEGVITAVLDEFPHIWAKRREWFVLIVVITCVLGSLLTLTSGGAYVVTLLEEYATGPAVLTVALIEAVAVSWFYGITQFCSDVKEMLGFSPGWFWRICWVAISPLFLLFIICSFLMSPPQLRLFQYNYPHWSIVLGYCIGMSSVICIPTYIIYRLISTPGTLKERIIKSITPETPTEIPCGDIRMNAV

[3] = target: norepinephrine transporter (NET) (Rattus norvegicus, UniProt Q9WTR4); assay: Norepinephrine reuptake ([^3H]norepinephrine uptake) inhibition in rat brain synaptosomes; conditions: for NE Uptake Emax (% I ± SD): maximal inhibition from dose-response fit
Method: Freshly removed whole brain minus cerebellum and caudate was homogenized in 10% ice-cold sucrose with 12 strokes of a hand-held Potter-Elvehjem homogenizer followed by centrifugation at 1000×g for 10 minutes. The supernatants were saved on ice and used immediately. Transporter activity at NET was assessed using 10 nM [^3H]norepinephrine. […] Uptake inhibition assays were conducted at 37° C. and were initiated by adding 100 μL of tissue to 900 μL assay buffer containing test drug and [^3H]norepinephrine. Test drugs were diluted in assay buffer containing 1 mg/mL bovine serum albumin. Nonspecific uptake was measured by incubating in the presence of 10 μM indatraline. The reactions were stopped after 10 minutes by rapid vacuum filtration with a cell harvester (BRANDEL) over GF/B filters (Whatman) presoaked in wash buffer maintained at 25° C. (10 mM Tris-HCl, pH 7.4/150 mM NaCl). Filters were rinsed with 6 mL wash buffer and retained tritium was quantified by a MicroBeta liquid scintillation counter (PerkinElmer) after overnight extraction in 0.6 mL of liquid scintillation cocktail (Cytoscint, ICN). The data from three experiments were pooled and fit to a dose-response curve equation (using Kaleidagraph), to yield an Emax and EC50 value.
as §1

[4] = DAT Uptake IC50, [3H]DA uptake inhibition, mean ± S.D., n = 3
[5] = mean ± S.D., n = 3, read-out: SERT Uptake Emax
[6] = mean ± S.D., n = 3, read-out: SERT Uptake IC50
[7] = rat brain synaptosomes, 10 nM [^3H]norepinephrine
[8] = read-out: NE Uptake EC50 (nM ± SD), rat brain synaptosomes, 10 nM [^3H]norepinephrine, 10 min, 37° C.
[9] = read-out: NET Uptake IC50, mean ± S.D., n = 3
[10] = DA Uptake EC50 (nM ± SD), rat caudate synaptosomes, 5 nM [^3H]dopamine, 15 min, 25° C., three experiments pooled
[11] = read-out: DA Uptake Emax (% I ± SD)

Compound: c1ccc(C(CNc2nc(-c3ccc4nccn4c3)nc3ccccc23)C2CCCCC2)cc1 (stereo not drawn) [compound 100, N-(2-Cyclohexyl-2-Phenylethyl)-2-(Imidazo[1,2-A]Pyridin-6-yl)Quinazolin-4-Amine]
- Emax (DAT): 50 ± 4%
- IC50 [1, 4]: 12 ± 2 nM
- Emax ([1]; read-out: DAT Uptake Emax): 72 ± 2%
- Emax [2, 5]: 59 ± 4%
- IC50 [2, 6]: 83 ± 28 nM
- NET Uptake Emax ([3]; mean ± S.D., n = 3): 65 ± 4%
- NE Uptake Emax (% I ± SD) [3, 7]: 65 ± 4 % I
- IC50 [3, 8]: 153 ± 55 nM
- IC50 [3, 9]: 153 ± 55 nM

Compound: CSc1ncc(-c2nc(NCC(c3ccccc3)c3ccccc3)c3ccccc3n2)cn1 [compound 30, N-(2,2-Diphenylethyl)-2-(2-(Methylthio)Pyrimidin-5-yl)Quinazolin-4-Amine]
- Emax (DAT): 63 ± 4%
- IC50 [1, 4]: 9 ± 1.5 nM
- Emax ([1]; read-out: DAT Uptake Emax): 71 ± 2%
- Emax [2, 5]: 52 ± 3%
- IC50 [2, 6]: 56 ± 21 nM
- NET Uptake Emax ([3]; mean ± S.D., n = 3): 62 ± 3%
- NE Uptake Emax (% I ± SD) [3, 7]: 62 ± 3 % I
- IC50 [3, 8]: 204 ± 47 nM
- IC50 [3, 9]: 204 ± 47 nM

Compound: CNc1ncc(-c2nc(NCC(c3ccccc3)c3ccccc3)c3ccccc3n2)cn1 [compound 41, N-(2,2-Diphenylethyl)-2-(2-(Methylamino)Pyrimidin-5-yl)Quinazolin-4-Amine]
- Emax (DAT): 59 ± 6%
- IC50 [1, 4]: 11 ± 1 nM
- Emax ([1]; read-out: DAT Uptake Emax): 71 ± 1%
- Emax [2, 5]: 60 ± 3%
- IC50 [2, 6]: 57 ± 18 nM
- NET Uptake Emax ([3]; mean ± S.D., n = 3): 78 ± 2%
- NE Uptake Emax (% I ± SD) [3, 7]: 78 ± 2 % I
- IC50 [3, 8]: 179 ± 27 nM
- IC50 [3, 9]: 179 ± 27 nM

Compound: CS(=O)(=O)Nc1ccc(-c2nc(NCC(c3ccccc3)c3ccncc3)c3ccccc3n2)cc1 (stereo not drawn) [SRI-30524]
- IC50 [2, 6]: 8.7 ± 0.9 nM
- NET Uptake Emax ([3]; mean ± S.D., n = 3): 76 ± 2%
- IC50 [3, 9]: 44 ± 6 nM

Compound: COC(=O)[C@H]1[C@@H](OC(=O)c2ccccc2)C[C@@H]2CC[C@H]1N2C [cocaine, reference compound]
- Emax ([1]; read-out: DAT Uptake Emax): 100 ± 2%
- Emax ([2]; read-out: SERT Uptake Emax): 98 ± 2%
- NET Uptake Emax ([3]; mean ± S.D., n = 3): 102 ± 2%

Compound: CN(C)c1ncc(-c2nc(NCC(O)(c3ccccc3)c3ccccc3)c3ccccc3n2)cn1 [compound 80, 2-((2-(2-(Dimethylamino)Pyrimidin-5-yl)Quinazolin-4-yl)Amino)-1,1-Diphenylethanol]
- Emax (DAT): 47 ± 6%
- IC50 [1, 4]: 13 ± 2 nM
- Emax ([1]; read-out: DAT Uptake Emax): 73 ± 2%
- Emax [2, 5]: 51 ± 1%
- IC50 [2, 6]: 54 ± 7 nM
- NET Uptake Emax ([3]; mean ± S.D., n = 3): 71 ± 2%
- NE Uptake Emax (% I ± SD) [3, 7]: 71 ± 2 % I
- IC50 [3, 8]: 259 ± 41 nM
- IC50 [3, 9]: 259 ± 41 nM

Compound: OC(CNc1nc(-c2ccc3nccn3c2)nc2ccccc12)(c1ccccc1)c1ccccc1 [compound 96, 2-((2-(Imidazo[1,2-A]Pyridin-6-yl)Quinazolin-4-yl)Amino)-1,1-Diphenylethanol]
- IC50 [1, 10]: 9.2 ± 1.2 nM
- Emax [1, 11]: 70 ± 1%
- IC50 ([2]; rat brain synaptosomes, 5 nM [^3H]serotonin, 30 min, 25° C., read-out: 5HT Uptake EC50 (nM ± SD)): 16 ± 5 nM
- Emax ([2]; rat brain synaptosomes, 5 nM [^3H]serotonin, maximal inhibition from dose-response fit, read-out: 5HT Uptake Emax (% I ± SD)): 55 ± 2%
- NE Uptake Emax (% I ± SD) [3, 7]: 65 ± 3 % I
- IC50 [3, 8]: 98 ± 23 nM

Compound: c1ccc(C(CNc2nc(-c3ccc4ncnn4c3)nc3ccccc23)c2cccnc2)cc1 (stereo not drawn) [compound 132, 2-([1,2,4]Triazolo[1,5-a]pyridin-6-yl)-N-(2-phenyl-2-(pyridin-3-yl)ethyl)quinazolin-4-amine]
- melting point: > 250 °C
- IC50 [1, 10]: 103 ± 26 nM
- Emax [1, 11]: 55 ± 3%

Compound: Cc1cc2nccn2cc1-c1nc(NCCc2ccccc2)c2ccccc2n1 [compound 160, 2-(7-Methylimidazo[1,2-A]Pyridin-6-yl)-N-Phenethylquinazolin-4-Amine]
- melting point: 192 to 196 °C
- IC50 [1, 10]: 11 ± 1 nM
- Emax [1, 11]: 69 ± 1%

Compound: CC(C)(C)OC(=O)N1CCCc2ccc(-c3nc(NCC(c4ccccc4)c4ccccc4)c4ccccc4n3)cc21 [compound 71, Tert-Butyl 7-(4-((2,2-Diphenylethyl)Amino)Quinazolin-2-yl)-3,4-Dihydroquinoline-1(2H)-Carboxylate]
- melting point: 89 °C
- IC50 [1, 10]: 890 nM
- Emax [1, 11]: < 100%

Compound: Nc1ncc(-c2nc(NCC(c3ccccc3)c3ccncc3)c3ccccc3n2)cn1 (stereo not drawn) [compound 107, 2-(2-Aminopyrimidin-5-yl)-N-(2-Phenyl-2-(Pyridin-4-yl)Ethyl)Quinazolin-4-Amine]
- melting point: 219 °C
- IC50 [1, 10]: 197 ± 40 nM
- Emax [1, 11]: 81 ± 3%
